Experimental data from article PMC12595434, “Development of retinoid nuclear receptor pathway antagonists through targeting aldehyde dehydrogenase 1A3” (iScience, 2025).
Values after ≈ are worked out from the molar mass of the structure shown. Like-named read-outs stand apart in the source and are kept apart here.

Key:
[1] = IV/PO pharmacokinetics in fasted male CD-1 mice
[2] = biological target: T1, human ALDH1A1 (Homo sapiens, UniProt P00352); assay: Recombinant enzyme activity assay; format: biochemical; conditions: dose titration, up to 10 μM
T1 construct: made in house; host or cells: BL21-DE3 E. coli
T1 sequence (P00352 1-501): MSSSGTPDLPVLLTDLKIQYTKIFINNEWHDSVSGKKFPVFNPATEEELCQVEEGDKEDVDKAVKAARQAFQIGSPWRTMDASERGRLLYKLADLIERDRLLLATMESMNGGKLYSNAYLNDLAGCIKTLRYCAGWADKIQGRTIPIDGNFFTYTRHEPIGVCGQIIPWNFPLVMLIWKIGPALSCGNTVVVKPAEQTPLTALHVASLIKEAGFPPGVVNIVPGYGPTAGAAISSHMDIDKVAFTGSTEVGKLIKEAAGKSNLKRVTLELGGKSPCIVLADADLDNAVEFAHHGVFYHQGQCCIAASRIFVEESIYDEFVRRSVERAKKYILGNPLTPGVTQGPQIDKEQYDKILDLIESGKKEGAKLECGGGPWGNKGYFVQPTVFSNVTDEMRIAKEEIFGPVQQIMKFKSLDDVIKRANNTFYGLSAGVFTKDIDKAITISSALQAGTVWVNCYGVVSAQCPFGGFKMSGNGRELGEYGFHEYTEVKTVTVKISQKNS
Experimental: Purified enzyme was used for biochemical and biophysical assays.
For the recombinant enzyme activity assay, enzyme aliquots were thawed on ice for 4 h prior to analysis and the protocol was performed as described[8] with the following key changes: 1) Final concentrations of NAD+ (Gold Bio) were 200 μM and BSA were 1 mg/mL 2) Propanaldehyde was used as the substrate for ALDH1A1 and ALDH2. 3) Reaction velocity was monitored through diaphorase (clostridium) coupled reduction of resazurin (100 μM) monitored with ex/em of 560nm/590 nm in order to regenerate NAD+ and thus maintain constant cofactor concentration as well as to avoid high absorbance values of many screening compounds at the NADH absorbance. Assays were conducted at room temperature (controlled to 21-23C) and all buffers were maintained at pH 7.5. For all reactions, pre-incubation time was approximately 2 min while the reaction monitoring was performed over 10 min.

[3] = Microsomal stability (mouse); format: in vitro ADME; conditions: microsomes, read-out: Microsomal T1/2 (mouse)
[4] = Kinetic solubility; format: physicochemical; conditions: kinetic from dmso stock
Excerpt: Table 1 Physiochemical, biochemical, and metabolic profile of lead compounds MBE1 and MBE1.5 | column: MBE1; MBE1.5

[5] = biological target: T2, mouse ALDH1A2 (Mus musculus, UniProt Q62148); assay: Recombinant enzyme activity assay; format: biochemical; conditions: recombinant activity assay (Table 1); read-out: IC50 molecular, mouse ALDH1A2
T2 construct: made in house; host or cells: BL21-DE3 E. coli

[6] = biological target: T3, human ALDH1A3 in A375 cells (Homo sapiens, UniProt P47895); assay: Aldefluor assay in A375 cells; format: cell-based; conditions: for Aldefluor activity at 100 nM (in words): A375 cells; for EC50: Aldefluor in A375 cells, read-out: EC50 cellular, human ALDH1A3
T3 construct: the cell lines with high endogenous ALDH1A3 activity: MDA-MB-468 (triple-negative breast cancer), A375 (melanoma), and LN229 (glioblastoma); endogenous in cells; host or cells: A375
T3 sequence (P47895 1-512): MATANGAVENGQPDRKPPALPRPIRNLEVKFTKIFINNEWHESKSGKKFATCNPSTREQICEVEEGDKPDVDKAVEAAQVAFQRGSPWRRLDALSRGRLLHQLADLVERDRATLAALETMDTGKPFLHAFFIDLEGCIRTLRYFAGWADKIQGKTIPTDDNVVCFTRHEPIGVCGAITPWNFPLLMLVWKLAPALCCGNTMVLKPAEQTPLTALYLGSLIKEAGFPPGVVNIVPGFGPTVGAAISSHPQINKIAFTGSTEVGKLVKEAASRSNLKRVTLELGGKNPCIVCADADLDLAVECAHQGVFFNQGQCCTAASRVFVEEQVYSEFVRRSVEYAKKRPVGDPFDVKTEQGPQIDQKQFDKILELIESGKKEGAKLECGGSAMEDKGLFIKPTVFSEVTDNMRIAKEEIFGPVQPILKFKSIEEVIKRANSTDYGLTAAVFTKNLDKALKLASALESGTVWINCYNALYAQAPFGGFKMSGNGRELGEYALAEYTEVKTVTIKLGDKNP
Experimental: In addition, cells were suspended at a concentration of 100,000 cells per mL. Finally, DMSO was added to at 1% final in all cells to improve kinetics of the assay. For compound titrations, concentrated compound stock was added first to tubes and a uniform Aldefluor buffer containing the cell suspension was added to dilute to final volumes. Cells were analyzed by a BD LSRII for flow cytometry and were sorted using a FACSAria Fusion cell sorter (BD Biosciences) equipped with a 70 micron nozzle. Sample and sort collection tubes were kept at 4°C. […] DAPI was used as a live-dead indicator.

[7] = Microsomal stability (human); format: in vitro ADME; conditions: microsomes, read-out: Microsomal T1/2 (human)
[8] = Hepatocyte stability (human); format: in vitro ADME; conditions: hepatocytes, read-out: Hepatocyte T1/2 (human)
[9] = biological target: T4, ALDH1A3 (Homo sapiens, UniProt P47895); assay: Microscale thermophoresis (MST) binding; set-up: made in house; host or cells: BL21-DE3 E. coli; conditions: biophysical assay (Table 1)
T4 sequence (P47895 1-512): T3 sequence (P47895 1-512)

[10] = biological target: CYP2D6 (Homo sapiens, UniProt P10635); assay: CYP inhibition; format: in vitro ADME
[11] = biological target: CYP1A2 (Homo sapiens, UniProt P05177); assay: CYP inhibition; format: in vitro ADME
[12] = pH 4.5, aqueous buffer, read-out: Kinetic solubility pH 4.5
[13] = pH 7.6, aqueous buffer, read-out: Kinetic solubility pH 7.6
[14] = 1 mg/kg IV and 10 mg/kg PO, fasted male CD1 mice

T2 sequence (Q62148 whole entry): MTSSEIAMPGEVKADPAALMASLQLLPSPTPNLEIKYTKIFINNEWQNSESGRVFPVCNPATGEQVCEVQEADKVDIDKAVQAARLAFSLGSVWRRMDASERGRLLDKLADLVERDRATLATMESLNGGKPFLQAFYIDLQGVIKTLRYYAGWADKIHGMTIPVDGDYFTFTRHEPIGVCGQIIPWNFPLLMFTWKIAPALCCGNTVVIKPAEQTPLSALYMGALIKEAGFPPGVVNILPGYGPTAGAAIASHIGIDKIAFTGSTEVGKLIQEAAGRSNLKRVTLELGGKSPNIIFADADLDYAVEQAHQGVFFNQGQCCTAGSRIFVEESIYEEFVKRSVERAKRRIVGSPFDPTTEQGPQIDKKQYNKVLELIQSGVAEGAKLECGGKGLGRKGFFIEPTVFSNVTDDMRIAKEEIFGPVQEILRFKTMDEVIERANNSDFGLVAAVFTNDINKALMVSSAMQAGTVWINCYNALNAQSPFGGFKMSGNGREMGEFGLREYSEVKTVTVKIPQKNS
CYP2D6, sequence (P10635 whole entry): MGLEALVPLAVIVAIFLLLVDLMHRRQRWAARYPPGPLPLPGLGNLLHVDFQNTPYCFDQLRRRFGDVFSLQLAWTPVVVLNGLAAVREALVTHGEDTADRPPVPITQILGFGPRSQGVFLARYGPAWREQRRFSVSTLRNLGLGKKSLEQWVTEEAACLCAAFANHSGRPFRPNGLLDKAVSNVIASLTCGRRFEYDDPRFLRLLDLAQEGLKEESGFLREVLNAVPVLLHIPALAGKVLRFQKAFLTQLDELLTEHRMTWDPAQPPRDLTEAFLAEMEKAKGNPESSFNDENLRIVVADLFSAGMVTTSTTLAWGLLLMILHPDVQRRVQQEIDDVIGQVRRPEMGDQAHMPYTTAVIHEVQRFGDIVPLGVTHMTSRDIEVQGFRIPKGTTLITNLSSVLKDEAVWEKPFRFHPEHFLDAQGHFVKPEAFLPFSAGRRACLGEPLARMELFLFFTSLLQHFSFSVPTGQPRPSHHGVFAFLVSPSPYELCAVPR
CYP1A2, sequence (P05177 whole entry): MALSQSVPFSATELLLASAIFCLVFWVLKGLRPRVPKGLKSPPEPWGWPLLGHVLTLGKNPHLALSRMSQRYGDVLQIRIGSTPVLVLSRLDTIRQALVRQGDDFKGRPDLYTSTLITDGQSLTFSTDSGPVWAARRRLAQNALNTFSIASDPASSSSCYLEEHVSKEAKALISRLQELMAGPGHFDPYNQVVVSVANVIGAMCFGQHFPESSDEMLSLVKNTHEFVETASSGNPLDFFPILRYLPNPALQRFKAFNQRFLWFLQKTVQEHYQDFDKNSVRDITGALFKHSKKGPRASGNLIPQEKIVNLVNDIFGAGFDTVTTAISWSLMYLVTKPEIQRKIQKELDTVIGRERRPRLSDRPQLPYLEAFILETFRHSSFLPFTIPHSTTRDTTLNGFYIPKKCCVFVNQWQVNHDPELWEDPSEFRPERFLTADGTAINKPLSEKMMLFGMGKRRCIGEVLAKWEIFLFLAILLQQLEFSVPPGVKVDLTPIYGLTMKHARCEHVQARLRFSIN

Row | SMILES | Oral bioavailability ([1]; 1 mg/kg i.v. and 10 mg/kg PO, fasted male CD-1 mice) [%] | half-life ([1]; male, CD-1, mouse, plasma, po, 10 mg/kg) [h] | inhibitory activity against ALDH1A1 (in words) [2] | half-life [3] [h] | solubility kinetic [4, 12] [µM] | solubility kinetic [4, 13] [µM] | IC50 [5] [nM] | Aldefluor activity at 100 nM (in words) [6] | EC50 [6] [nM] | half-life [7] [h] | half-life [8] [h] | Kd [9] [nM] | inhibition at 10 µM [10] [%] | inhibition at 10 µM [11] [%] | bioavailability compared with MBE1 (in words) [1, 14] | half-life compared with MBE1 (in words) [1, 14]
1 | CCc1cnccc1C(=O)Nc1cc2c(cc1F)NC(=O)CC2 [MBE1, 3-ethyl-N-(7-fluoro-2-oxo-3,4-dihydro-1H-quinolin-6-yl)pyridine-4-carboxamide] | 88.3 | 1.37 | no inhibition | 0.727 | > 200 | > 200 | 3330 | highest activity | 5.1 | > 2.42 | > 3.61 | 71.7 | 61.3 | 8.8 | – | –
2 | CCc1ccccc1C(=O)Nc1cc2c(cc1F)NC(=O)CC2 [MBE1.5, 2-ethyl-N-(7-fluoro-2-oxo-3,4-dihydro-1H-quinolin-6-yl)benzamide] | – | – | no inhibition | 1.87 | 34.2 (≈ 10.7 µg/mL) | 33.3 (≈ 10.4 µg/mL) | 4000 | highest activity | 1.9 | > 2.42 | > 3.61 | 42.1 | 0 | 11.6 | reduced bioavailability | improved half-life
